# Where no end group is shown, it is not given here.
# Columns and labels:
# [1] = tested on: STAT4 expression in MDLCs; experiment: STAT4 Western blot in MDLCs; format: cell-based, human; conditions: n = 4; for Total STAT4 expression: MDLCs treated 24 h, CGRP 0.1 μM, SAX 0.1 μM, CGRP1–8 10 μM, LPS 10 μg/ml, normalized to beta actin
# Protocol: For PBMCs, cells (2 × 10^6/sample) were activated with PHA (5 μg/ml) + IL2 (100 U/ml) for 48 h at 37°C, serum-starved overnight, and stimulated for 30 min at 37°C with either IL12 (10 ng/ml; R&D systems) or interferon alpha (IFNα, 5 × 10^4 U/ml; pbl Assay Science). For MDLCs, cells (2 × 10^6/sample) were re-suspended in complete RPMI medium without cytokines and rested overnight at 37°C. […] The cells were then washed and stimulated for 30 min at 37°C with combination of IL12 + IFNα at the concentrations indicated above. PBMCs/MDLCs were subsequently lysed for 30 min on ice with 100 μl lysis buffer [50 mM Tris buffer pH = 7.5, 150 mM NaCl, 2 mM EDTA, 1% Triton X100, 0.1% SDS, 1:100 dilutions of phosphatase inhibitors II/III and protease inhibitor cocktail (Sigma)], followed by three cycles of 10 s vortex and 10 min incubation on ice. Lysates were centrifuged for 10 min at 4°C/13,200 rpm, and supernatants were collected and stored at −80°C. […] Blocking was performed for 1 h at room temperature with blocking buffer (Tris-buffered saline (TBS), 0.5% Tween 20, and 0.5% dry milk). The blots were next incubated overnight at 4°C with commercial rabbit polyclonal Abs suitable for WB, directed against human STAT4 (Proteintech #13028-1AP, 0.5 μg/ml) or phosphorylated STAT4 (pSTAT4; R&D systems, #AF4319, 1 μg/ml), followed by 1:1,000 dilution of HRP-conjugated donkey-anti-rabbit IgG Ab (Southern Biotech) for 1 h at room temperature. Loading control was verified by incubation with goat polyclonal Ab to beta actin (abcam, 0.4 μg/ml), followed by 1:5,000 dilution of HRP-conjugated donkey-anti-goat IgG Ab (Promega). All Abs were diluted in blocking buffer, and pre-stained SDS-PAGE standard markers (ThermoFisher) were applied to determine molecular weights. Revelation was performed for 1–10 s with ECL-Prime chemiluminescence detection kit (Amersham). Images were acquired with the Fusion FX camera platform (Vilber Lournmat) and protein expression was quantified with ImageJ software (NIH).
# (A, B) PHA/IL2-activated PBMCs were serum-starved overnight at 37°C, and left untreated (Un) or stimulated for 30 min with either IL12 or IFNα. […] (F) MDLCs were treated as described in panels (C, D) above, and further stimulated for 30 min with combination of IL12 + IFNα.
# [2] = tested on: HIV-1 ADA; experiment: MDLCs-mediated HIV-1 trans-infection to CD4+ T-cells; format: cell-based; conditions: for Inhibition of MDLCs-mediated HIV-1 trans-infection (in words): p24 ELISA or GFP-reporter T-cells by flow cytometry
# Protocol: (§1) For langerin surface expression, MDLCs were washed and stained for 20 min on ice in a final volume of 50 µl PBS with a phycoerythrin (PE)-conjugated mouse monoclonal Ab against human langerin (clone DCGM4, Beckman Coulter), or matched isotype control. For HIV-1 trans-infection, MDLCs were washed and pulsed with HIV-1 ADA (1ng p24 corresponding to multiplicity of infection of 0.2) for 4 h. MDLCs were next incubated with autologous CD4+ T-cells or with green fluorescent protein (GFP)-reporter T-cells, and HIV-1 replication was measured in the co-culture supernatants using p24 ELISA (Fujirebio) or by evaluating GFP fluorescent by flow cytometry, as we described ([13]–[15]). Fluorescent profiles were acquired using a Guava easyCite and analyzed with the InCyte software (Merck-Millipore).
# (§2) Data was analyzed using Prism software (GraphPad). Concentration-response curves were analyzed with the [log(agonist) vs. response (three parameters)] model for langrin upregulation and the [log(inhibitor) vs. normalized response − variable slope] model for HIV-1 trans-infection inhibition. The -log molar concentrations of agonists generating 50% response represented potencies (i.e., pEC50 and pIC50). Statistical significance was analyzed with the two-tailed Student’s t-test.
# The cells were then pulsed with HIV-1 ADA for 4 h, washed, and incubated for 7 days with autologous CD4+ T-cells (A–C) or 3 days with HIV-1 GFP-reporter T-cells (D). HIV-1 trans-infection and replication in T-cells was evaluated by p24 ELISA in the co-culture supernatants or by GFP expression and flow cytometry.
# [3] = tested on: langerin surface expression in MDLCs; experiment: Langerin surface expression in MDLCs (flow cytometry); format: cell-based, human
# Protocol: as §1, §2
# The cells were then stained for surface langerin and examined by flow cytometry.
# [4] = cited from earlier work
# From the text: However, CGRP-mediated vasodilation is potentially protective, at least during hypertension and cardiovascular complications ([5]).
# [5] = tested on: HIV-1 (V29)-infected PBMCs; experiment: HIV-1 infection of dermal T-cells in inner foreskin tissue explants ex-vivo; format: cell-based; conditions: explants pre-treated 24 h at 1 μM, inoculated 4 h, further three days incubation; flow cytometry; n = 4
# Protocol: For infection experiments, round (8 mm diameter) inner foreskin tissue pieces were placed in 24-well plates and incubated submerged for 24 h at 37°C with 1 ml complete RPMI medium, alone or supplemented with CGRP or SAX (1 μM, four explants per condition). The tissues were next washed, transferred to two-chamber transwell inserts (Sigma), and inoculated in a polarized manner for 4 h at 37°c with either non-infected or HIV-1 (V29)-infected PBMCs (in duplicates), as we described ([11], [12]).
# Dermal cell suspensions were prepared following washing of the explants, additional incubation for three days at 37°C submerged in 1 ml fresh medium, and subsequent enzymatic digestion with collagenase/DNase as we described ([11], [12]). Pooled cells of each duplicate were surface stained as above using FITC-conjugated mouse-anti-human CD3 Ab (Pharmingen), fixed, permeabilized, and stained for 30 min at room temperature with 1:160 dilution of PE-conjugated mouse-anti-human Ab to HIV-1 p24 and core antigens (Beckman Coulter). Fluorescent profiles were recorded using a Guava easyCyte and InCyte software.
# (D, E) Other explants were further incubated for additional three days and digested with collagenase/DNase. In panel (D), shown are representative flow cytometry dot plots of dermal cell suspensions double stained for surface CD3 and intracellular p24 and examined by flow cytometry. […]
compound,measurement,setting,value
NCCCC[C@H](NC(=O)[C@@H](Cc1cc(Br)c(O)c(Br)c1)NC(=O)N1CCC(N2Cc3ccccc3NC2=O)CC1)C(=O)N1CCN(c2ccncc2)CC1 [BIBN4096],Effect of antagonist on CGRP- and SAX-mediated increase in STAT4,[1]; BIBN4096 1 μM added 15 min before agonists (0.1 μM),abrogated
same,Effect of antagonist on CGRP- and SAX-mediated inhibition of HIV-1 trans-infection,"[2]; BIBN4096 1 μM added 15 min before agonists (0.1 μM), n = 3",completely abrogated
same,Effect of antagonist on CGRP- and SAX-mediated increase in langerin expression,"[3]; BIBN4096 1 μM added 15 min before agonists (0.1 μM), n = 4",completely abrogated
"CGRP1–8: previously described CGRP N-terminal fragment (ACDTATCV; not fully specified (bridges); ends and bridges not checked; UniProt P06881 83-90, looked up, fragment)",Total STAT4 expression,[1],failed to increase
same,Inhibition of MDLCs-mediated HIV-1 trans-infection (in words),[2]; MDLCs treated 24 h,lacks anti-HIV-1 inhibitory activity
same,Increase in langerin surface expression (in words),"[3]; MDLCs treated 24 h, flow cytometry",fails to increase
lipopolysaccharide [LPS],Total STAT4 expression,[1],significantly increased
serinyl-CGRP2-37-amide with an albumin binding fatty acid moiety in the N-terminus [SAX],Total STAT4 expression,[1],significantly increased
same,Phosphorylation of induced STAT4 (pSTAT4) upon cytokine stimulation,"[1]; after 24 h agonist treatment, 30 min IL12 + IFNα",could be readily phosphorylated
same,Half-life compared to CGRP,[4],longer
same,HIV-1 infection of dermal T-cells (p24+CD3+),[5],undetectable levels
same,"pIC50 [95% CI], inhibition of MDLCs-mediated HIV-1 trans-infection","[2]; MDLCs treated 24 h, pulsed with HIV-1 ADA 4 h, 7 days with autologous CD4+ T-cells, p24 ELISA, -log molar, n = 5",8.9 [9.9–7.9]
same,Inhibition of MDLCs-mediated HIV-1 trans-infection (in words),[2]; MDLCs treated 24 h,significantly inhibited
same,Fold lower potency of SAX than CGRP,[2]; blocking HIV-1 trans-infection in MDLCs,> 10 fold
same,"pEC50 [95% CI], increase in langerin surface expression","[3]; MDLCs treated 24 h, flow cytometry, -log molar, n = 5",8.3 [9.6–6.5]

# — article PMC8692891 (Frontiers in Immunology, 2021)
